Reference: patent publication US11370791B2, “Solid polymorphs of a FLNA-binding compound and its hydrochloride salts” (Pain Therapeutics, Inc., priority 2019, dated 2022)
Entries after “also recorded” stand apart in the source; their conditions may differ. Counter-ions that a name gives are not always drawn. Like-named read-outs stand apart in the source and are kept apart here.

Tests used:
[1] = pKa analysis, potentiometric titration; assay type: physicochemical; conditions: 22° C., ISA water (ionic strength 0.15, KCl)
Description: The Compound titration was performed at 22° C. in ISA water. The weighed amount of TC (2.40 mg) was placed into a titration vial. ISA water (15 mL) was delivered automatically to the vial. The pH value of the solution was adjusted to 3 by adding 0.5 M HCl automatically. The titration with 0.5 M KOH was performed automatically until a pH value of 11.5 was reached. One additional mL of ISA water was added to the titration vial to perform the second titration and third titration, per titration respectively. The datasets for the three titrations were combined in the Refinement Pro program to create a Multiset for pKa calculation.
First, the pKa measurements and calculations for Compound C0105 were performed with the presumption that there were two basic ionizable groups. […] Then the pKa calculations for the Compound were performed with the presumption that there was one basic ionizable group.

[2] = molecular target: T1, filamin-A (FLNA) (Homo sapiens, UniProt P21333); conditions: higher affinity binding site of the two sites; membrane preparation from A7 or SK-N-MC cells; cited from earlier work
T1 construct: in a membrane preparation from A7 cells or SK-N-MC cells; endogenous in cells; host or cells: A7 cells or SK-N-MC cells (membrane preparation)

[3] = hydration studies, slurries in IPA/water mixtures; assay type: physicochemical; conditions: for Observations, hydration study: IPA/water
[4] = dynamic vapor sorption (DVS); assay type: physicochemical; conditions: for hygroscopicity by DVS: 0%-90% RH; for hysteresis: at 0% RH
Description: Approximately 10 mg of sample was placed into a glass vapor sorption balance pan and loaded into a DVS-1 dynamic vapor sorption balance by Surface Measurement Systems. […] After completion of the sorption cycle, the sample was dried using the same procedure, from 90% RH down to 0% RH. The weight change during the sorption/desorption cycles were plotted, permitting the hygroscopic nature of the sample to be determined.

[5] = 1 week stability studies (HPLC purity, XRPD, appearance); assay type: physicochemical; conditions: for Observations T = 0 / HPLC Purity T = 0: start of stability study
Description: Each salt formed was exposed to environments of 40° C./75% RH (open vial), elevated temperature (80° C., open vial) and ambient light (about 22° C. in a closed vial), for 1 week to assess both chemical and physical stability. Resulting solids were analyzed by X-ray powder diffraction (XRPD) to establish if any changes had occurred and by HPLC to determine purity.

[6] = solvent solubility screen; conditions: for solubility: 40 °C
[7] = between 70% and 0% RH, dihydrochloride monohydrate
[8] = 40° C./75% RH, open vial, dihydrochloride monohydrate
[9] = 40° C./75% RH, dihydrochloride monohydrate
[10] = 80° C., open vial, dihydrochloride monohydrate
[11] = 80° C., dihydrochloride monohydrate
[12] = Ambient (light, about 22° C., closed vial)
[13] = Ambient (light, about 22° C., closed vial), dihydrochloride monohydrate
[14] = ambient, dihydrochloride monohydrate
[15] = 1,2-dichloroethene, organic solvent or mixture
[16] = 2-MeTHF, organic solvent or mixture
[17] = 2-butanol, organic solvent or mixture
[18] = 2-propanol, organic solvent or mixture
[19] = 2-propanol:water (10%), organic solvent or mixture
[20] = acetone, organic solvent or mixture
[21] = acetone:water (5%), organic solvent or mixture
[22] = acetone:water (20%), organic solvent or mixture
[23] = acetonitrile, organic solvent or mixture
[24] = cyclohexane, organic solvent or mixture
[25] = dimethylacetamide, organic solvent or mixture
[26] = dimethylsulfoxide, organic solvent or mixture
[27] = ethanol, organic solvent or mixture
[28] = ethyl acetate, organic solvent or mixture
[29] = heptane, organic solvent or mixture
[30] = isopropyl acetate, organic solvent or mixture
[31] = methanol, organic solvent or mixture
[32] = methyl acetate, organic solvent or mixture
[33] = methyl ethyl ketone, organic solvent or mixture
[34] = methyl isobutyl ketone, organic solvent or mixture
[35] = tert-butyl methyl ether, organic solvent or mixture
[36] = tetrahydrofuran, organic solvent or mixture
[37] = toluene, organic solvent or mixture

T1 sequence (P21333 whole entry): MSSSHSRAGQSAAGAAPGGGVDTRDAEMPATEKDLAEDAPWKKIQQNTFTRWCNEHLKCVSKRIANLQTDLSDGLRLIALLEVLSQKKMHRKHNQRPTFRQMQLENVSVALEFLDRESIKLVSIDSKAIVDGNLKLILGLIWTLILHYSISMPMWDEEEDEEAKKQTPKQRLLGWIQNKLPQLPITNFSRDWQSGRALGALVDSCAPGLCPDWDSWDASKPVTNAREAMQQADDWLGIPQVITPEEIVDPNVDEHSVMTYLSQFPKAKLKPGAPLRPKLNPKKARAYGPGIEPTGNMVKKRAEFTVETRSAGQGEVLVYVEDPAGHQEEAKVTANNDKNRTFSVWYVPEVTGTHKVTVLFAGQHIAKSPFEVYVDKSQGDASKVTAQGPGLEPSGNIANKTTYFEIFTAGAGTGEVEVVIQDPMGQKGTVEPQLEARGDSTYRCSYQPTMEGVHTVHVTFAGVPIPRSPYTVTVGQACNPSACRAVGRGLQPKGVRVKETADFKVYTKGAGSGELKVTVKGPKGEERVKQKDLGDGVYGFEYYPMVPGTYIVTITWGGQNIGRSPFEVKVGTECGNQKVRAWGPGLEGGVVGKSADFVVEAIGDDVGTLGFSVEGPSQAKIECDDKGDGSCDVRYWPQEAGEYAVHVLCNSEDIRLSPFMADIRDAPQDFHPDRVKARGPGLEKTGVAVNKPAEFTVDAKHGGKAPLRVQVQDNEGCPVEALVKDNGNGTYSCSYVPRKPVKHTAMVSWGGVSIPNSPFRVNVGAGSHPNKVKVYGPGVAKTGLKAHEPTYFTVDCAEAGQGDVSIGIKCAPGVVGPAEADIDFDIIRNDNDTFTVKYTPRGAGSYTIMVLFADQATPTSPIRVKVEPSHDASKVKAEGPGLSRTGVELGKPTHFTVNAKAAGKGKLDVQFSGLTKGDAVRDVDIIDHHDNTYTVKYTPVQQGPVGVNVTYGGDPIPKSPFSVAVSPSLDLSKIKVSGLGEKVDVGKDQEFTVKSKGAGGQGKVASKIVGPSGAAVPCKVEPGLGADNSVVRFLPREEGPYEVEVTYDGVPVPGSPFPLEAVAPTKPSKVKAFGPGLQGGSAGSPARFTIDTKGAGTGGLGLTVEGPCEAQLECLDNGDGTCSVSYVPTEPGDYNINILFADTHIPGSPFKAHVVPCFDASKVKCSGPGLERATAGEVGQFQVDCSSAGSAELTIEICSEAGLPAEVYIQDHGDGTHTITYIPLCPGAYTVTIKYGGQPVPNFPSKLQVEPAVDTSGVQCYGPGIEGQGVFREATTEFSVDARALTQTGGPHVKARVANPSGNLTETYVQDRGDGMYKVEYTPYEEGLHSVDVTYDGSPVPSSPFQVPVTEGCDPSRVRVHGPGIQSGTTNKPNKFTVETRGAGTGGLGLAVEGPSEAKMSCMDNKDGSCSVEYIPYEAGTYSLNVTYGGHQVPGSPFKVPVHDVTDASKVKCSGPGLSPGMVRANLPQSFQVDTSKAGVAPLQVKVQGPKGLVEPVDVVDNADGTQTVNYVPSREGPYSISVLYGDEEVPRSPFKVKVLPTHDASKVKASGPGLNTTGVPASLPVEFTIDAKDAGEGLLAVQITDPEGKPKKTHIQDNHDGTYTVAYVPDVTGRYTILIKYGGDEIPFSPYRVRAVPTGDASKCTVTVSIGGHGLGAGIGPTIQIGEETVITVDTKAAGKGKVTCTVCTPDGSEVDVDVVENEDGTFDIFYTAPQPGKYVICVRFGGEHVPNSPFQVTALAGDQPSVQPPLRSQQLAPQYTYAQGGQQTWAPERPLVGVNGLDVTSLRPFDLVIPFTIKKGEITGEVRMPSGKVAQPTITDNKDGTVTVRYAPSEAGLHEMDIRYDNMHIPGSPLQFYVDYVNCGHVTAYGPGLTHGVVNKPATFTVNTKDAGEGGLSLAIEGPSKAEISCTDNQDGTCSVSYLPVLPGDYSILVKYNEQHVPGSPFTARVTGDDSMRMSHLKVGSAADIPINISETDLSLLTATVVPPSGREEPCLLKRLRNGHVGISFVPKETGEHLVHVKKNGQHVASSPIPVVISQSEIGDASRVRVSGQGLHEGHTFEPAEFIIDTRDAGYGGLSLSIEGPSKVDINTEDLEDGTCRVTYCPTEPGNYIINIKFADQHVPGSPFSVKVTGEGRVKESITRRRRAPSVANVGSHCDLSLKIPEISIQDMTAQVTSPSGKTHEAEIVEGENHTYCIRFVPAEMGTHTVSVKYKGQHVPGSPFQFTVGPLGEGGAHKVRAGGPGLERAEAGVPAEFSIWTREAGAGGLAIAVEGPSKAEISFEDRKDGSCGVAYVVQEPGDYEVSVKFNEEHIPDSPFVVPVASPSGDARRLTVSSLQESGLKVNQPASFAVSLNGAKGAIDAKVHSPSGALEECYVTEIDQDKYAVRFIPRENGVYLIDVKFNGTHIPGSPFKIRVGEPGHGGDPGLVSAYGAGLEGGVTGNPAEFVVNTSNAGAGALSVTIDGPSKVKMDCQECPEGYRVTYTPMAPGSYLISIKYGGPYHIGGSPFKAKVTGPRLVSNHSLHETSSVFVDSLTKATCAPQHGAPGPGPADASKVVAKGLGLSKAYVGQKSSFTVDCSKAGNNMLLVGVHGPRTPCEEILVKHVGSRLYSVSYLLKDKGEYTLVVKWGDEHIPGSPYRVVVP

CN1CCC2(CC1)NCC(=O)N2Cc1ccccc1 [Compound C0105, 1-benzyl-8-methyl-1,4,8-triazaspiro[4.5]-decan-2-one]
pKa ([1]; higher value): 8 | pKa ([1]; lower value): 1.5 | EC50, inhibition of [3H]NLX binding [2]: 10^−12 to 10^−13 M

CN1CCC2(CC1)NCC(=O)N2Cc1ccccc1 [HCl Di-Salt Hydrate (Form 2), 1-benzyl-8-methyl-1,4,8-triazaspiro-[4.5]-decan-2-one dihydrochloride monohydrate]
Observations, hydration study ([3]; 5% water, water activity approx. 0.5): White suspension | Observations, hydration study ([3]; 10% water, water activity approx. 0.7): White suspension | Observations, hydration study ([3]; 40% water, water activity approx. 0.9): White suspension | form change by XRPD on stirring in IPA/water mixtures ([3]; various IPA/water mixtures, 24 hours): no form change occurred | hygroscopicity by DVS ([4]; dihydrochloride monohydrate): less hygroscopic than Form 1 between 0% and 50% RH, but more hygroscopic than Form 1 by DVS analysis >50% RH; also recorded: hygroscopic above 50% RH | hysteresis [4]: about 0.4% | water uptake, sorption cycle ([4]; at 50% RH (0% to 50% RH), dihydrochloride monohydrate): about 0.2% | water uptake, sorption cycle ([4]; at 80% RH, dihydrochloride monohydrate): about 9.9% | mass decrease, desorption cycle [4, 7]: 6.77% | post-DVS XRPD analysis ([4]; dihydrochloride monohydrate): increase in crystallinity | Observations T = One week ([5]; 40° C./75% RH, open vial): White solid | HPLC Purity T = One week [5, 8]: 99.8% | polymorphic form by XRPD after 1 week [5, 9]: increase in crystallinity | Observations T = One week [5, 10]: white to off-white/orange; also recorded: Orange solid | polymorphic form by XRPD after 1 week [5, 11]: did not indicate significant changes in polymorphic form | Observations T = One week [5, 12]: White solid | HPLC Purity T = One week [5, 13]: 99.5% | polymorphic form by XRPD after 1 week [5, 14]: did not indicate significant changes in polymorphic form | Observations T = 0 [5]: White solid | HPLC Purity T = 0 ([5]; dihydrochloride monohydrate): 99.4%

CN1CCC2(CC1)NCC(=O)N2Cc1ccccc1 [HCl Di-Salt Hydrate, Form 1, 1-benzyl-8-methyl-1,4,8-triazaspiro-[4.5]-decan-2-one dihydrochloride monohydrate]
hygroscopicity by DVS ([4]; dihydrochloride monohydrate): hygroscopic above 50% RH | final dry mass higher than the initial dry mass ([4]; at 0% RH following sorption and de-sorption profile): 0.13% | largest hysteresis, difference in water uptake between sorption and de-sorption profile ([4]; at 50% RH): 0.78% | water uptake, sorption cycle ([4]; at 90% RH, dihydrochloride monohydrate): about 8.26% | mass decrease, desorption cycle [4, 7]: about 2.33% | post-DVS XRPD analysis ([4]; dihydrochloride monohydrate): No significant differences in polymorphic form | Observations T = One week ([5]; 40° C./75% RH, open vial): White solid | HPLC Purity T = One week [5, 8]: 99.0% | polymorphic form by XRPD after 1 week [5, 9]: No significant changes in polymorphic form | HPLC Purity T = One week [5, 10]: 99.4% | Observations T = One week [5, 10]: Off-white | polymorphic form by XRPD after 1 week [5, 11]: No significant changes in polymorphic form | Observations T = One week [5, 12]: White solid | HPLC Purity T = One week [5, 13]: 99.4% | polymorphic form by XRPD after 1 week [5, 14]: No significant changes in polymorphic form | Observations T = 0 [5]: White solid | HPLC Purity T = 0 ([5]; dihydrochloride monohydrate): 99.1% | solubility [6, 15]: < 10000 µg/mL | solubility [6, 16]: < 10000 µg/mL | Solubility at 40° C. ([6]; 2-Propanol:water (10%)): Moderate solubility | solubility [6, 17]: < 10000 µg/mL | solubility [6, 18]: < 10000 µg/mL | solubility [6, 19]: ~25000 µg/mL | Solubility at 40° C. ([6]; Acetone:Water (20%)): High solubility | Solubility at 40° C. ([6]; Dimethylsulfoxide): very high solubility | Solubility at 40° C. ([6]; Methanol): Moderate solubility | Solubility at 40° C. ([6]; Water): very high solubility | solubility [6, 20]: < 10000 µg/mL | solubility [6, 21]: < 10000 µg/mL | solubility [6, 22]: ~85000 µg/mL | solubility [6, 23]: < 10000 µg/mL | solubility [6, 24]: < 10000 µg/mL | solubility [6, 25]: < 10000 µg/mL | solubility [6, 26]: > 200000 µg/mL | solubility [6, 27]: < 10000 µg/mL | solubility [6, 28]: < 10000 µg/mL | solubility [6, 29]: < 10000 µg/mL | solubility [6, 30]: < 10000 µg/mL | solubility [6, 31]: ~25000 µg/mL | solubility [6, 32]: < 10000 µg/mL | solubility [6, 33]: < 10000 µg/mL | solubility [6, 34]: < 10000 µg/mL | solubility [6, 35]: < 10000 µg/mL | solubility [6, 36]: < 10000 µg/mL | solubility [6, 37]: < 10000 µg/mL | solubility ([6]; water): > 200000 µg/mL

CN1CCC2(CC1)NCC(=O)N2Cc1ccccc1.Cl [HCl mono-salt, 1-benzyl-8-methyl-1,4,8-triazaspiro-[4.5]-decan-2-one monohydrochloride]
post-DVS XRPD analysis [4]: not consistent with any of the forms previously observed | hygroscopicity by DVS ([4]; monohydrochloride): very hygroscopic above 70% RH; also recorded: deliquesced at high RH | hysteresis [4]: 7.3% | water uptake, sorption cycle ([4]; at 70% RH): 2.55% | water uptake, sorption cycle ([4]; at 90% RH): 68.57% | mass decrease, desorption cycle ([4]; between 10% and 0% RH): 6.10% | mass decrease, desorption cycle ([4]; between 90% and 50% RH): 54.25% | water uptake, sorption cycle ([4]; until 60% RH): about 0.27% | loss in purity by HPLC during stability studies ([5]; 1 week, all conditions): No significant loss in purity | polymorphic form by XRPD after 1 week ([5]; 40° C./75% RH): deliquesced | HPLC Purity T = One week ([5]; 40° C./75% RH, open vial): 99.4% | Observations T = One week ([5]; 40° C./75% RH, open vial): Clear liquid | polymorphic form by XRPD after 1 week ([5]; 80° C.): retained its polymorphic form | HPLC Purity T = One week ([5]; 80° C., open vial): 99.5% | Observations T = One week ([5]; 80° C., open vial): Off-white | HPLC Purity T = One week [5, 12]: 98.6% | Observations T = One week [5, 12]: White solid | polymorphic form by XRPD after 1 week ([5]; ambient): retained its polymorphic form | HPLC Purity T = 0 [5]: 98.8% | Observations T = 0 [5]: White solid | solubility [6, 15]: < 10000 µg/mL | solubility [6, 16]: < 10000 µg/mL | Solubility at 40° C. ([6]; 2-Propanol:water (10%)): very high solubility | solubility [6, 17]: < 10000 µg/mL | solubility [6, 18]: < 10000 µg/mL | solubility [6, 19]: > 200000 µg/mL | Solubility at 40° C. ([6]; Acetone:Water (5%)): Some solubility | Solubility at 40° C. ([6]; Acetone:Water (20%)): very high solubility | Solubility at 40° C. ([6]; Dimethylacetamide): Some solubility | Solubility at 40° C. ([6]; Dimethylsulfoxide): high solubility | Solubility at 40° C. ([6]; Ethanol): Some solubility | Solubility at 40° C. ([6]; Methanol): very high solubility | Solubility at 40° C. ([6]; Water): very high solubility | solubility [6, 20]: < 10000 µg/mL | solubility [6, 21]: ~20000 µg/mL | solubility [6, 22]: > 200000 µg/mL | solubility [6, 23]: < 10000 µg/mL | solubility [6, 24]: < 10000 µg/mL | solubility [6, 25]: ~10000 µg/mL | solubility [6, 26]: ~105000 µg/mL | solubility [6, 27]: ~20000 µg/mL | solubility [6, 28]: < 10000 µg/mL | solubility [6, 29]: < 10000 µg/mL | solubility [6, 30]: < 10000 µg/mL | solubility [6, 31]: > 200000 µg/mL | solubility [6, 32]: < 10000 µg/mL | solubility [6, 33]: < 10000 µg/mL | solubility [6, 34]: < 10000 µg/mL | solubility [6, 35]: < 10000 µg/mL | solubility [6, 36]: < 10000 µg/mL | solubility [6, 37]: < 10000 µg/mL | solubility ([6]; water): > 200000 µg/mL
